Literature values as cited in US20180177198A1, “PEDICULICIDE FORMULATION BASED ON EUCALYPTUS GLOBULUS ESSENTIAL OIL” (UNIVERSIDAD DE CONCEPCION, priority 2015, published 2018).

Assays:
[1] = system: lice
[2] = system: pediculosis; conditions: in vivo
[3] = system: P. capitis
[4] = not given; remark: listed apart in the source
[5] = system: Pediculus humanus capitis resistant to permethrin

CC1=CC[C@@H](C(C)(C)O)CC1 [1-α-terpineol]
pediculicidal effectiveness compared with phenothrin or pyrethrum [1]: as effective as

CC12CCC(CC1)C(C)(C)O2 [1.8-cineol]
pediculicidal effectiveness compared with phenothrin or pyrethrum [1]: as effective as

C=C1C(O)CC2CC1C2(C)C (centres unmarked) [(E)-pinocarveol]
pediculicidal effectiveness compared with phenothrin or pyrethrum [1]: as effective as

CC1=CCC2CC1C2(C)C (stereo not drawn) [(−) α-pinene]
pediculicidal effectiveness compared with phenothrin or pyrethrum [1]: as effective as

c1ccc([C@H]2CN3CCSC3=N2)cc1 [Levamisol]
effectiveness in treatment of pediculosis [2]: 19%

Cl[C@H]1[C@H](Cl)[C@@H](Cl)[C@@H](Cl)[C@H](Cl)[C@H]1Cl [Lindane, gamma benzene hexachloride]
ovicidal activity [3]: lacks ovicidal activity | toxicity range, can be lethal (adults): 28 g | dose causing respiratory depression (children below the age of 4, at 1%): 5 mL | average life in the blood stream ([4]; in vivo): 24 h | absorbed by passage into the blood stream ([4]; topical use): Approximately 10%

c1ccc2[nH]c(-c3cscn3)nc2c1 [Thiabendazole]
average life (elimination after percutaneous absorption) ([4]; in vivo): 70 min

CC1=CC=C(C(C)C)CC1 [α-terpinene]
pediculicidal effectiveness compared with phenothrin or pyrethrum [1]: as effective as

I-phellandrene
pediculicidal effectiveness compared with phenothrin or pyrethrum [1]: as effective as

α-dodelactone
repellent activity [5]: significant repellent activity
